# Test results published in PubChem BioAssay AID1902 (Broad Institute, 2009).
# Active and inactive are the calls of the source.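 How the source made its calls: active means EC50 no more than a set limit of log units above the highest dose; inactive means the rest.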
# Molecular target: S. pyogenes SKKanGAS, kanamycin survival, BacTiterGlo, 6 h
# Test: SKKanGAS survival reduction under kanamycin, dose response, streptokinase promoter inhibitor project, SKKanGAS strain, luminescence, dose confirmation (AID 1902);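 further: lower survival reflects blocked streptokinase promoter driving kanamycin resistance gene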
row,SMILES,EC50
1,COc1ccc(C(=O)c2ccc(N3CCN(C4CC(=O)NC4=O)CC3)cc2)cc1F (configuration not stated),2.76 µM
2,O=C(NC(=S)N1CCN(c2nc(-c3ccccc3)cs2)CC1)c1cccnc1,4.08 µM
3,O=C(Nc1cc(Cl)cc(Cl)c1)Nc1cnccn1,4.85 µM
4,CCCc1sc(N/N=C/c2ccccn2)nc1-c1ccc(Br)cc1,0.241 µM
5,COc1cc(OC)c(NC(=O)c2sc3ncn(CC(=O)N4CCN(c5ccccn5)CC4)c(=O)c3c2C)cc1Cl,6.52 µM
6,CCCCNc1c2c3c(cccc3n(C)c1=O)C(=O)c1ccccc1-2,6.26 µM
7,CSCc1cc(N(C)c2ccccc2)nc(-c2ccccn2)n1,0.136 µM
8,CC(C)C[C@H](NC(=O)c1nc[nH]c1C(=O)N1CCc2ccccc2C1)C(=O)OCc1ccccc1,9.87 µM
9,O=C(Nc1ccccc1Sc1ccccc1)c1ccccc1F,4.53 µM
10,CCN(CC)c1ccc(/C=N/NC(=O)CCC(=O)NCc2ccccc2)c(O)c1,3.35 µM
11,S=c1nc2ccccc2c2nc(-c3ccccc3)[nH]n12,5.36 µM
12,CCOC(=O)c1nnn(-c2nonc2-n2cccc2)c1CN1CCC(C)CC1,8.02 µM
13,Cc1cccc(C(=O)NCC(=O)N2CCOCC2)c1,> 15 µM (inactive)
14,c1ccc(Nc2nc(N3CCCCC3)nc(N3CCCCC3)n2)cc1,8.25 µM
15,COc1ccc(S(=O)(=O)NCC2CCCN(Cc3ccc(OC)cc3F)C2)cc1 (configuration not stated),> 15 µM (inactive)
16,CC1=NN(C(N)=S)C(=O)C1N=Nc1c(C)cc(C)cc1C (configuration not stated),5.77 µM
17,COc1cc(C(=O)NC(=S)Nc2ccc(NC(=O)c3ccco3)cc2)cc(OC)c1OC,8.97 µM
18,COc1ccc(/C=N/NC(=O)c2cc(C(C)(C)C)[nH]n2)cc1COc1ccc(F)cc1F,7.62 µM
19,CC12CCC(C(=O)NNC(=O)c3ccccc3)(OC1=O)C2(C)C (configuration not stated),> 15 µM (inactive)
20,O=[N+]([O-])c1cccc(/C=C/c2ccc3cccc(O)c3n2)c1,2.25 µM
21,CC1(C)CC(c2nc(-c3ccc(Cl)cc3)cs2)CCS1 (configuration not stated),6.7 µM
22,Cc1nc2c(C(=O)NCc3ccc4c(c3)OCO4)cnn2c(C)c1Cc1ccc(F)cc1Cl,14.7 µM

row,SMILES,EC50
1,COc1ccc(NS(=O)(=O)c2ccc3nc(COc4cccc5ccccc45)[nH]c3c2)cc1,5.97 µM
2,CC(Oc1ccc(Cl)cc1Cl)C(=O)Nc1ccc(S(=O)(=O)Nc2cnc3ccccc3n2)cc1 (configuration not stated),3.88 µM
3,CCn1c(=O)c(C(=O)Nc2nc3ccccc3[nH]2)c(O)c2ccccc21,1.03 µM
4,CCN1/C(=C\c2ccc3cc(C)ccc3[n+]2CC)Sc2cc(C)c(C)cc21,4.23 µM
5,COc1ccc(C(Nc2cc(C)ccn2)c2ccc3ccc(C)nc3c2O)cc1 (configuration not stated),12.5 µM
6,Cc1cc2nc(CSc3ccccc3)cc(=O)n2[nH]1,3.82 µM
7,COC(=O)c1sc(N2C(=O)C(O)=C(C(=O)c3ccc(C)o3)C2c2ccc([N+](=O)[O-])cc2)nc1C (configuration not stated),4.1 µM
8,CCCCn1c(O)c(C(C)=Nc2ccc(OCC)cc2)c(=O)[nH]c1=O,9.75 µM
9,Cc1ccc(-c2nn(-c3ccccc3)cc2/C=N/O)cc1,6.28 µM
10,COc1cc(Cc2cc(N)nc(N)n2)cc(OC)c1OC,4.31 µM
11,O=C1CC(N(CCc2ccccc2)C(=S)Nc2ccccc2)C(=O)N1c1ccc(Br)cc1 (configuration not stated),3.07 µM
12,CCc1ccc(S(=O)(=O)/N=C2\C=C(Nc3ccc(C(=O)O)cc3)C(=O)c3ccccc32)cc1,0.444 µM
13,CC1=CC(C)(C)n2c(O)c(N=N)c3c(C)c(C)cc1c32,5.67 µM
14,CC(C)(C)c1cc(NCCCn2ccnc2)n2ncc(-c3ccc(Cl)cc3)c2n1,2.38 µM
15,Brc1ccc(Nc2ncnc3[nH]ncc23)cc1,8.45 µM
16,COc1ccc(-c2cn[nH]c2-c2ccc(OC)cc2)cc1,6.64 µM
17,Nc1nc(N)c2cc(Sc3ccc4ccccc4c3)ccc2n1,0.115 µM
18,CCOc1cc(/C=C(\C#N)c2nc(-c3cccs3)c(NC(C)=O)s2)ccc1O,0.385 µM
19,Cc1ccc(O)c(C(=O)CC(=O)c2ccc(C(C)(C)C)cc2)c1,2.6 µM
20,CC12CCC(C/C1=N\N=C1\NC(=O)/C(=C\c3cccc(Br)c3)S1)C2(C)C (configuration not stated),0.638 µM
21,CC1=C(C#N)c2nc(N)c(C#N)c(C)c2/C1=C\c1ccc(C)cc1,6.18 µM
22,Cc1cc(N/N=C/c2c(O)ccc3ccccc23)nc(-c2ccccc2O)n1,0.257 µM

row,SMILES,EC50
1,CCOC(=O)c1ccc(NC2=CC(=O)C(=O)c3ccccc32)cc1,3.48 µM
2,Clc1ccccc1C(c1ccccc1)(c1ccccc1)n1ccnc1,6.21 µM
3,Cc1cccc(-n2ncc3c2CCCC3NC(=O)CCN2Cc3ccccc3C2=O)c1C (configuration not stated),> 15 µM (inactive)
4,CCC1CCCCN1S(=O)(=O)c1ccc(C(=O)Nc2nnc(C3=COCCO3)o2)cc1 (configuration not stated),5.72 µM
5,COc1cc([N+](=O)[O-])cc(/C=N/NC(=O)c2ccc(C)nc2)c1O,2.61 µM
6,Cc1noc(NS(=O)(=O)c2ccc(NC(=O)c3oc4ccc(Cl)cc4c3C)cc2)c1C,6.63 µM
7,CC(C)(C)c1ccc(OCC(=O)N2CCN(c3ncccn3)CC2)cc1,> 15 µM (inactive)
8,CCCCCCCCCCn1c2c(c(=N)c3c1CCC3)CCC2,9.26 µM
9,Cc1ccc(/C=N/NC(=O)C2=NNC(c3ccccc3)(c3ccccc3)C2)c(O)c1,4.01 µM
10,COc1ccc(-c2cn[nH]c2-c2ccc(OCc3ccccc3)cc2O)cc1,2.38 µM
11,Cc1nc(C)c(C(=O)N/N=C/c2cc(Br)ccc2O)s1,2 µM
12,O=C(NC12CC3CC(CC(C3)C1)C2)c1ccc([N+](=O)[O-])o1,2 µM
13,CC(C)(C)OC(=O)NCCCC[C@H](NC(=O)c1[nH]cnc1C(=O)Nc1ccc(Cl)cc1)C(=O)OC(C)(C)C,2.19 µM
14,O=C(N/N=C/c1ccccc1O)c1cccc2ccccc12,3.08 µM
15,CSc1n[nH]c2nc3c(c(=O)n12)C1(CCCCC1)Cc1ccccc1-3,10.5 µM
16,Cc1ccc(/C=C/C(=O)c2ccccc(=O)c2O)c(C)c1,3.57 µM
17,Cc1ccc(N(C)S(=O)(=O)c2cccc(C(=O)Nc3nc4ccccc4[nH]3)c2)cc1,1 µM
18,O=C(Nc1ccc(-c2csc(Nc3ccccc3)n2)cc1)c1cccc(C(F)(F)F)c1,> 15 µM (inactive)
19,CC(NC(=O)Cn1c(=O)[nH]c2ccsc2c1=O)C12CC3CC(CC(C3)C1)C2 (configuration not stated),> 15 µM (inactive)
20,NCCS(=O)(=O)NC1CCCCC1,> 15 µM (inactive)
21,Cc1n[nH]c(C)c1CCCOc1ccccc1,5.14 µM
22,CSc1nc2cc(Oc3cccc(Cl)c3Cl)c(Cl)cc2[nH]1,2.93 µM

row,SMILES,EC50
1,O=C(NNC1=C(C(=O)C(F)(F)F)CCC1)c1cccc(Cl)c1,0.931 µM
2,CCc1nn(CCCC(=O)NCc2ccccc2Br)c(=O)c2cc3occc3n12,2.55 µM
3,COc1cc(C(=O)NNC(=S)NC(=O)c2ccc3c(c2)OCO3)cc(OC)c1OC,1.63 µM
4,COc1ccc(S(=O)(=O)Nc2cc3c4c(oc3c3ccccc23)CC(C)(C)CC4=O)cc1,6.26 µM
5,Oc1ccc(Br)cc1/C=N/NC(=S)NCCc1ccccc1,1.93 µM
6,Nc1ccc(-c2cn3cccnc3n2)cc1,> 15 µM (inactive)
7,CC(C)(C)c1ccc(CSc2cnn(C(C)(C)C)c(=O)c2Cl)cc1,4.99 µM
8,CN=C(Nc1cc(Cl)ccc1Cl)SC1CC(=O)N(c2ccc(C(=O)OC)cc2)C1=O (configuration not stated),7.4 µM
9,C/C(=N\NC(=O)c1ccccc1O)C1C(=O)c2ccccc2C1=O,4.69 µM
10,CC(=O)OCC1=C(C(=O)O)N2C(=O)C(NC(=O)CCn3nc(C)c(Cl)c3C)C2SC1 (configuration not stated),1.02 µM
11,Cc1cc(C)c(OCC(=O)N2CCN(c3ncc(C(F)(F)F)cc3Cl)CC2)c(C)c1,6.88 µM
12,CC(=O)c1cccc(OC(=O)c2ccc3c(=O)n4c(nc3c2)CCC4)c1,13.7 µM
13,CC(/C=C/c1ccc(N(C)C)cc1)=N\N=C1\NC(=O)CC(C(=O)Nc2ccccc2)S1 (configuration not stated),3.16 µM
14,Cc1ccc(S(=O)(=O)Nc2cccc3ncccc23)s1,2.87 µM
15,CCc1ccccc1NC(=O)NC(C)c1ccc2c(c1)OCO2 (configuration not stated),> 15 µM (inactive)
16,C=C1SC(=Nc2ccccc2Cl)N(C(=O)c2sc3ccccc3c2Cl)C12CCCCC2,3.48 µM
17,CC(C)(C)c1ccc(C(=O)N2CCN(C(=O)c3ccco3)CC2)cc1,> 15 µM (inactive)
18,CC(C)=CCc1c2c(c3occ(-c4ccc(O)cc4)c(=O)c3c1O)C=CC(C)(C)O2,0.876 µM
19,O=C(CCn1cnc(-c2ccccc2)c1-c1ccccc1)N/N=C/c1ccccc1O,0.522 µM
20,COc1ccccc1/C=C/c1ccc2cccc(O)c2n1,1.18 µM
21,Cc1cccc2sc(NNC(=O)c3ccc(S(=O)(=O)N4CC(C)CC(C)C4)cc3)nc12 (configuration not stated),0.212 µM
22,CCOC(=O)N1CCC(N2Cc3cccc(C(=O)Nc4ccc(F)cc4)c3C2=O)CC1,5.9 µM

row,SMILES,EC50
1,c1ccc(Oc2nc(-c3ccccn3)nc3ccccc23)cc1,9.41 µM
2,O=[N+]([O-])c1ccc(/C=[N+](\[O-])CCO)o1,5.78 µM
3,COc1ccc(C2c3ccc(O)cc3Oc3ncn4nc(-c5ccncc5)nc4c32)cc1OC (configuration not stated),6.28 µM
4,COc1cccc(C(=O)NC(=S)N2CCN(c3ccc(C(F)(F)F)cc3[N+](=O)[O-])CC2)c1,> 15 µM (inactive)
5,CC(OC(=O)CC1CCCC1)C(=O)Nc1ccc(S(N)(=O)=O)cc1 (configuration not stated),> 15 µM (inactive)
6,COc1cccc(/C=N/NC(=O)c2cc3c(OC)ccc(OC)c3[nH]2)c1O,2 µM
7,N=C1S/C(=C\c2cn[nH]c2-c2ccc(F)cc2)C(=O)N1c1ccccc1F,3.65 µM
8,C#C[C@]1(O)CC[C@H]2[C@@H]3CCc4cc(OC5CCCC5)ccc4[C@H]3CC[C@@]21C,2.6 µM
9,CCOC(=O)C1=C(C)N=c2s/c(=C/c3ccc(OCC(=O)O)c(OC)c3)c(=O)n2C1c1ccc(Cl)cc1 (configuration not stated),5 µM
10,COC(=O)/C=C1\SC(=Nc2ccc(Cl)c(Cl)c2)NC1=O,8.93 µM
11,Cc1ccc(-c2nn(-c3ccccc3)cc2/C=N/n2c(-c3cccs3)n[nH]c2=S)cc1,1.95 µM
12,O=C(CCC(=O)Nc1cc(C(F)(F)F)ccc1Cl)N/N=C\c1cc([N+](=O)[O-])ccc1O,0.658 µM
13,CCCCC[n+]1ccn(C2=C([O-])c3ccccc3C(=O)/C2=N\S(=O)(=O)c2ccccc2)c1,2.58 µM
14,Cc1ccc(Sc2cc(C)nc(-c3ccccn3)n2)cc1,12.4 µM
15,O=C(CC1CC2CCC1C2)Nc1nc(-c2ccccn2)cs1 (configuration not stated),2.4 µM
16,O=C(Nc1nnc(C2=COCCO2)o1)c1cccc(F)c1,2.37 µM
17,CCCN(CC(=O)Nc1cc(Cl)cc(Cl)c1)CC(=O)Nc1ccc(F)c(F)c1F,4.87 µM
18,COc1cc(C(=O)NNC(=S)NC(=O)c2ccc(Cl)cc2)cc(OC)c1OC,0.499 µM
19,Cc1onc(-c2ccccc2)c1C(=O)NNC(=S)NC(=O)c1ccc(Br)cc1,0.174 µM
